Each structure is given as a SMILES string. Converted amounts (≈) assume the structure as drawn.

Assay [1] relates to Mycobacterium tuberculosis. Briefly: Antitubercular activity against Mycobacterium tuberculosis H37Rv measured after 7 days under aerobic condition. The class given is functional, organism-based. As to conditions: 168 h.
The test system of assay [2] is Mycobacterium tuberculosis. Put plainly: Antitubercular activity against Mycobacterium tuberculosis H37Rv expressing bacterial luciferase infected murine J774 macrophage cells assessed as reduction in cell count at 20 uM measured after 4 days by luminescence analysis. The class given is functional.
The subject of assay [3] is Mycobacterium tuberculosis. Briefly: Bactericidal activity against Mycobacterium tuberculosis H37Rv measured upto 21 days. It counts as functional. Conditions: 504 h.
The subject of assay [4] is Mycobacterium tuberculosis. Briefly: Antimicrobial activity against Mycobacterium tuberculosis H37Rv expressing bacterial luciferase measured after 10 days under hypoxia condition by LORA assay. The class given is functional. Conditions: 240 h.
In assay [5] the test system is Mycobacterium tuberculosis. Put plainly: Antitubercular activity against Mycobacterium tuberculosis H37Rv measured after 5 days under aerobic condition by two-fold serial dilution method. The class given is functional. As to conditions: 120 h.
The subject of assay [6] is Mycobacterium tuberculosis. Briefly: Antitubercular activity against Mycobacterium tuberculosis H37Rv expressing bacterial luciferase infected murine J774 macrophage cells assessed as reduction in cell count at 200 uM measured after 4 days by luminescence analysis. It counts as functional.

Turning to `CCCC[C@@H](CNC)N1CCN(CCC23CC4CC(CC(C4)C2)C3)[C@H](C(C)CC)C1` (stereo partly drawn), in assay [1], the IC50 stood at 29.6 µM, the IC90 was 54.2 µM and inhibition of growth (MIC) required 100 µM (≈ 41.8 µg/mL).
Taken in the same sequence, the figures for `CCCC[C@H](CNC)N1CCN(CCC23CC4CC(CC(C4)C2)C3)[C@H](C(C)C)C1` were 47.5 µM, 65.5 µM and 100 µM (≈ 40.4 µg/mL).
As for `CNC[C@@H](Cc1ccccc1)N1CCN(CCC23CC4CC(CC(C4)C2)C3)[C@H](C(C)C)C1`, in assay [2], the Activity is listed as 2.22 log10CFU. Besides, inhibition in assay [1] was half-maximal at 20.7 µM (IC50). The IC90 in assay [1] was found to be 37 µM. Further, the MIC in assay [1] was found to be 50 µM (≈ 21.9 µg/mL); in assay [4], 52.2 µM (≈ 22.8 µg/mL); in assay [5], 14 µM (≈ 6.13 µg/mL). The MBC in assay [3] was 114 µM (≈ 49.9 µg/mL).
For `CCC(C)[C@H](CNC)N1CCN(CCC23CC4CC(CC(C4)C2)C3)[C@H](CO)C1` (stereo partly drawn), in assay [1], the IC90 was above 100 µM and the MIC was above 100 µM.
Regarding `CNC[C@@H](Cc1ccccc1)N1CCN(CCC(c2ccccc2)c2ccccc2)CC1`, the Activity in assay [2] and in assay [6] was 2.4 log10CFU each time. The same molecule registered an IC50 in assay [1] of 23 µM. The molecule also came in with an IC90 in assay [1] above 61 µM. The MIC was 52.3 µM (≈ 22.4 µg/mL) in assay [1], above 200 µM in assay [4] and 69 µM (≈ 29.5 µg/mL) in assay [5]. Besides, in assay [3], the MBC came out at 20 µM (≈ 8.55 µg/mL).
In the case of `CNCCN1CCN(CCC23CC4CC(CC(C4)C2)C3)[C@H](C(C)C)C1`, in assay [1], the IC90 is above 100 µM and the MIC is above 100 µM.
With `CNC[C@@H](CC(C)C)N1CCN(CCc2ccc(C)cc2)CC1`, in assay [1], the IC50 is above 200 µM, the concentration for an effect of 90% (IC90) was above 200 µM and the MIC was above 200 µM.
With `CCCC[C@@H](CNC)N1CCN(CCC23CC4CC(CC(C4)C2)C3)[C@H](CO)C1`, in assay [1], the IC90 amounted to 70.6 µM and the MIC is above 100 µM.
As for `CCC(C)[C@@H](CNC)N1CCN(CCc2ccc(C)cc2)CC1` (stereo partly drawn), in assay [1], the half-inhibitory concentration (IC50) came to 37 µM, the IC90 turned out to be 110 µM and the MIC stood at 93.9 µM (≈ 29.8 µg/mL).
As for `CNC[C@@H](Cc1ccccc1)N1CCN(CCC23CC4CC(CC(C4)C2)C3)CC1`, the Activity in assay [2] is recorded as 0 log10CFU; in assay [6], 2.7 log10CFU. Further, in assay [1], the IC50 stood at 38 µM. This molecule registered an IC90 in assay [1] of 99 µM. In addition, the MIC came to 61.2 µM (≈ 24.2 µg/mL) in assay [1], 74 µM (≈ 29.3 µg/mL) in assay [4] and 36 µM (≈ 14.2 µg/mL) in assay [5]. This molecule showed an MBC in assay [3] of 100 µM (≈ 39.6 µg/mL).
In assay [1], `CNC[C@@H](CO)N1CCN(CCc2ccc(C)cc2)[C@H](CC2CCCCC2)C1` came in with a concentration for half-maximal inhibition (IC50) of 67 µM, an IC90 of 160 µM and a minimal inhibitory concentration (MIC) of 200 µM (≈ 77.5 µg/mL).
Taken in the same sequence, the figures for `CC[C@H](C)[C@@H]1CN([C@@H](CNC)Cc2ccccc2)CCN1CC(C)(C)C` were 190 µM, above 200 µM and above 200 µM.
Take `CNC[C@@H](Cc1ccccc1)N1CCN(CCC23CC4CC(CC(C4)C2)C3)[C@H](CO)C1`: in assay [1], it took 75.6 µM to reach the 90% level (IC90) and the MIC was above 100 µM.
In assay [1], `CCCC[C@H](CNC)N1CCN(CCC23CC4CC(CC(C4)C2)C3)[C@H](C(C)CC)C1` (stereo partly drawn) yielded an IC50 of 21.2 µM, an IC90 of 33.7 µM and an MIC of 50 µM (≈ 20.9 µg/mL).
In assay [1], `CNC[C@@H](Cc1ccccc1)N1CCN(CC2CCC(C)CC2)[C@H](C(C)C)C1` (stereo partly drawn) showed an IC90 of 85.5 µM and an MIC above 100 µM.
In assay [1], `CCC(C)[C@@H]1CN([C@H](CNC)Cc2ccccc2)CCN1CCC12CC3CC(CC(C3)C1)C2` (stereo partly drawn) showed an IC50 of 20.2 µM, an IC90 of 35.5 µM and an MIC of 50 µM (≈ 22.6 µg/mL).
Taken in the same sequence, the figures for `CNC[C@H](Cc1ccccc1)N1CCN(CCC23CC4CC(CC(C4)C2)C3)[C@H](CO)C1` were 54.6 µM, 66.1 µM and 100 µM (≈ 42.6 µg/mL).
In assay [1], `CCC(C)[C@H](CNC)N1CCN(CCc2c[nH]c3ccccc23)[C@H](C(C)C)C1` (stereo partly drawn) returned a 90% effect concentration (IC90) above 100 µM and an MIC above 100 µM.
In assay [1], `CCC(C)[C@H](CNC)N1CCN(CCC23CC4CC(CC(C4)C2)C3)[C@H](C(C)C)C1` (stereo partly drawn) yielded an IC50 of 37.4 µM, an IC90 of 99.5 µM and a minimum inhibitory concentration (MIC) of 100 µM (≈ 40.4 µg/mL).
In the case of `CCC(C)[C@@H]1CN([C@@H](CNC)Cc2ccccc2)CCN1CCC12CC3CC(CC(C3)C1)C2` (stereo partly drawn), the Activity in assay [2] and in assay [6] was 2.4 log10CFU in each case. The IC50 in assay [1] was determined as 17 µM. In addition, the 90% effect level in assay [1] (IC90) was put at 38 µM. For the same molecule, the MIC was 37.7 µM (≈ 17 µg/mL) in assay [1], 9.8 µM (≈ 4.43 µg/mL) in assay [4] and 41 µM (≈ 18.5 µg/mL) in assay [5]. The same molecule registered an MBC in assay [3] of 5 µM (≈ 2.26 µg/mL).
In assay [1], `CNC[C@H](Cc1ccccc1)N1CCN(CCc2c[nH]c3ccccc23)[C@H](C(C)C)C1` returned an IC90 of 88.1 µM and an MIC above 100 µM.
In assay [1], `CCCC[C@@H](CNC)N1CCN(CCC23CC4CC(CC(C4)C2)C3)[C@H](C(C)C)C1` came in with an IC50 of 51.8 µM, an IC90 of 61.4 µM and a minimal inhibitory concentration (MIC) of 100 µM (≈ 40.4 µg/mL).
Consider `CCCC[C@@H](CNC)N1CCN(CCc2c[nH]c3ccccc23)[C@H](C(C)C)C1`, for which, in assay [1], the 90% effect level (IC90) was put at 85.3 µM and the minimum inhibitory concentration (MIC) is above 100 µM.
In assay [1], `CNC[C@@H](CO)N1CCN(CCC(c2ccccc2)c2ccccc2)[C@H](CC2CCCCC2)C1` gave an IC50 of 22 µM, an IC90 of 50 µM and an MIC of 48.4 µM (≈ 22.4 µg/mL).

Values taken from ChEMBL document CHEMBL3792319, “Synthesis and antitubercular activity of 1,2,4-trisubstitued piperazines” (Bioorg Med Chem Lett, 2016).
